Source: USRE40300E1, “Carbon dioxide enhancement of inhalation therapy” (priority 1999, dated 2008)
Like-named read-outs stand apart in the source and are kept apart here.

What was measured:
B16-F10 lung metastasis = test: Inhibition of B16-F10 lung metastasis by aerosol delivery; assay type: in vivo, C57BL/6 mice; details: 5% CO2 alone, data not shown
Procedure: B16-F10 melanoma cell line was obtained from Division of Cancer treatment and Diagnosis Center (DCTDC, NCE, Frederick, Md.) and cultivated in DMEM supplemented with 10% fetal calf serum. […] Twenty-five thousand B16-F10 cells in 200 μl of media are injected per mice via the tail vein of C57BL/6 mice. Lung metastases are visually detected within 2 weeks after inoculation of cells. The cells were used at passages 3-12.
C57BL/6 mice were injected intravenously with 25,000 B16-F10 cells on day 0. The mice were treated with polyethylenimine-p53 aerosol complexes generated using 5% CO2 twice a week starting the day after inoculation of the cancer cells into the mice (on days 1, 4, 8, 11, 15, 18, and 22) with the last treatment on day 22 postinjection (a total of seven aerosol exposures). Control groups included untreated mice, mice treated with polyethyleneimine or with polyethylenimine-Luc aerosol complexes. The control animals start dying around day 24 post tumor cell inoculation, which is when the therapy was stopped and the experiment terminated. The dosage of treatment was 2 mg plasmid/10 ml of aerosolized solution at a polyethyleneimine:DNA (N:P) ratio of 10:1. This is the total amount of DNA aerosolized to the mice. […]

[1] = cited from earlier work
[2] = cited from earlier work; for increase in frequency of breathing / increase in minute volumes / increase in tidal volumes: normal humans
[3] = Tissue distribution and pharmacokinetics of PTX after PTX-DLPC aerosol generated with normal or 5% CO2-enriched air; assay type: in vivo, mice; details: for Cmax: lung, inhaled, 10 mg of PTX/ml suspension (nebulized, 30 min aerosol exposure), 30 min, read-out: Pulmonary paclitaxel Cmax
[4] = Tissue distribution and pharmacokinetics of CPT after CPT-DLPC aerosol generated with normal or 5% CO2-enriched air; details: 5% CO2-in-air versus normal air
Procedure: Briefly, an AERO-MIST jet nebulizer (CIS-USA, Bedford, Mass.) is used to generate aerosol particles at the air flow rate of 10 L/min. Mice are placed in sealed plastic cage (23×18×13 cm) and exposed to aerosol for 30 min. The aerosol is generated with normal or 5% CO2-enriched air obtained by mixing normal air and CO2 with a blender (Bird 3m, Palm Springs, Calif.) and the CO2 concentrations are calibrated with a Fluid Fyrite (Bacharach Inc., Pittsburgh, Pa.). At each time point 3 mice are removed from the cage and sacrificed by exposure to Isoflurane, USP (Abbott Laboratories, Chicago, Ill.) and exsanguination. Organs are resected, weighed and kept frozen at −70° C. until extraction.
Briefly, after thawing tissue, 20 μg of 9NC in 20 μl is added in organs as an internal standard to determine the extraction efficiency. The samples are cut in small pieces and 1 ml of 0.1% aqueous acetic acid solution, pH 3.2 is added to each sample. After the homogenization in a mini-beadbeater, the homogenates are centrifuged at 1,000×g for 5 min. The supernatant fractions are re-extracted with 8 ml of methylene chloride. The organic fraction is separated and dried under air at room temperature. […]
Chromatograms for camptothecin are monitored on Waters 470 scanning fluorescent detector (λex=360 nm, λem=455 nm) while 9NC is detected using Waters 440 UV absorbance detector monitoring at 254 nm. […]

[5] = inhalation of 5% carbon dioxide
[6] = 5% carbon dioxide for two minutes
[7] = 7.5% carbon dioxide for two minutes

O=C=O [carbon dioxide]
effect on the growth of tumors compared to untreated mice (B16-F10 lung metastasis): no effect | increase in tidal volume ([1]; 5% CO2-enriched air, mammalians, plethysmograph studies): 170-180% | increase in tidal volume [1, 5]: ≤ 192% | increase in frequency of breathing [2, 6]: 6.7% | increase in minute volumes [2, 6]: 34% | increase in tidal volumes [2, 6]: 31% | increase in frequency of breathing [2, 7]: 19% | increase in minute volumes [2, 7]: 75% | increase in tidal volumes [2, 7]: 52% | increase in the minute volume [2, 5]: 3 fold

CC(=O)O[C@H]1C(=O)[C@@]2(C)[C@H]([C@H](OC(=O)c3ccccc3)[C@]3(O)C[C@H](OC(=O)[C@H](O)[C@@H](NC(=O)c4ccccc4)c4ccccc4)C(C)=C1C3(C)C)[C@]1(OC(C)=O)CO[C@@H]1C[C@@H]2O [paclitaxel]
area under the lung-concentration-time curve ([3]; 5% CO2): 33.7 µg·h/g | T1/2α in the lungs ([3]; 5% CO2-air): 0.7 h | T1/2β in the lungs ([3]; 5% CO2-air): 5.1 h | AUC over a 3 hr period, fifth value of list (blood) ([3]; 5% CO2-air, trapezoidal rule): 0.13±0.10 μg PTS-hr/g of tissue | AUC over a 3 hr period, fourth value of list (kidney) ([3]; 5% CO2-air, trapezoidal rule): 2.8±1.5 μg PTS-hr/g of tissue | AUC over a 3 hr period, liver ([3]; 5% CO2-air, trapezoidal rule): 9.8±1.9 μg PTS-hr/g of tissue | AUC over a 3 hr period, lungs ([3]; 5% CO2-air, trapezoidal rule): 34±2 μg PTS-hr/g of tissue | AUC over a 3 hr period, sixth value of list (brain) ([3]; 5% CO2-air, trapezoidal rule): 0.23±0.2 μg PTS-hr/g of tissue | average pulmonary deposition increase ([3]; 5% CO2-in-air versus normal air): 2-4 fold | Cmax ratio 5% CO2-enriched air versus ambient air ([3]; lungs): 4.2 fold | lung AUC ratio 5% CO2 versus normal air ([3]; mouse, in vivo): 5.7 fold | Cmax ([3]; mouse, 5% CO2-enriched air): 23100 ± 4300 ng/g | Cmax ([3]; mouse, ambient air): 5500 ± 200 ng/g | T1/2α in the lungs ([3]; normal air): 0.3 h | T1/2β in the lungs ([3]; normal air): 1.6 h | area under the lung-concentration-time curve ([3]; normal air): 5.9 µg·h/g | levels of paclitaxel in liver, spleen, kidney and blood ([3]; normal air for aerosolization): below detectable levels

CC[C@@]1(O)C(=O)OCc2c1cc1n(c2=O)Cc2cc3ccccc3nc2-1 [camptothecin]
average pulmonary deposition increase [4]: 2-4 fold
